Our source for the IC50 values is ChEMBL document CHEMBL3045964, “Synthesis, cytotoxicity, and structureactivity insight of NH- and N-methyl-3,5-bis-(arylidenyl)-4-piperidones” (Med Chem Res, 2013).

What is called IC50 is the midpoint of a concentration-inhibition curve.

Bounds are passed on as bounds.

One test concerns L1210. The experiment in a line: Cytotoxicity against Mus musculus (mouse) L1210 cells assessed as growth inhibition after 72 hr by MTT assay. The test is classed as functional, cell-based. The following applies: L1210, 72 h.
In another test the test system is B16. The experiment in a line: Cytotoxicity against Mus musculus (mouse) B16 cells assessed as growth inhibition after 72 hr by MTT assay. The test is classed as functional, cell-based. The following applies: B16, 72 h.

For the compound `O=C1/C(=C/c2ccc(Cl)c(Cl)c2)CNC/C1=C\c1ccc(Cl)c(Cl)c1`, the IC50 with L1210 amounted to 3.6 µM; in the test with B16 it was 4.1 µM.

As to `O=C1/C(=C/c2ccc(O)c([N+](=O)[O-])c2)CNC/C1=C\c1ccc(O)c([N+](=O)[O-])c1`, the IC50 in the test with L1210 turned out to be 2 µM; in the test on B16 it was 7.3 µM.

For the compound `CCN(CC)c1ccc2cc(/C=C3\CNC/C(=C\c4cc5ccc(N(CC)CC)cc5oc4=O)C3=O)c(=O)oc2c1`, the IC50 in the test on L1210 stood at 29 µM; with B16, 44 µM.

As to `CCN(CC)c1ccc(/C=C2\CN(C)C/C(=C\c3ccc(N(CC)CC)cc3)C2=O)cc1`, the IC50 with L1210 was determined as 3.3 µM; with B16 it was 33 µM.

As to `CCN(CC)c1ccc(/C=C2\CNC/C(=C\c3ccc(N(CC)CC)cc3)C2=O)cc1`, the results for the IC50 in the test with L1210 and in the test on B16 were 35 µM and 1.5 µM, respectively.

For the compound `CN1C/C(=C\c2ccc(N(C)C)cc2)C(=O)/C(=C/c2ccc(N(C)C)cc2)C1`, the IC50 in the test on L1210 was 28.5 µM; with B16 it was 23.5 µM.

Regarding `COc1ccc(/C=C2\CNC/C(=C\c3ccc(OC)nc3)C2=O)cn1`, the concentration for half-maximal inhibition (IC50) was found to be 2.8 µM in the test with L1210 and 3.6 µM with B16.

For `COc1ccc(OC)c(/C=C2\CNC/C(=C\c3cc(OC)ccc3OC)C2=O)c1`, the IC50 in the test with L1210 and in the test with B16 was 0.3 µM throughout.

In the case of `O=C1/C(=C/c2ccc3c(c2)OCO3)CNC/C1=C\c1ccc2c(c1)OCO2`, the IC50 was determined as 12.5 µM with L1210 and 25 µM in the test with B16.

Take `COc1cc(/C=C2\CNC/C(=C\c3cc(OC)cc(OC)c3)C2=O)cc(OC)c1`: the IC50 in the test with L1210 and with B16 was 0.3 µM each time.

`COc1cc(OC)c(/C=C2\CNC/C(=C\c3c(OC)cc(OC)cc3OC)C2=O)c(OC)c1`: the IC50 amounted to 1.1 µM with L1210 and 0.2 µM in the test with B16.

Turning to `COc1cccc(/C=C2\CNC/C(=C\c3cccc(OC)c3)C2=O)c1`, the IC50 with L1210 was 4.3 µM; in the test on B16, 1.9 µM.

`O=C1/C(=C/c2cccc(Br)c2)CNC/C1=C\c1cccc(Br)c1`: the 50% inhibitory concentration (IC50) was above 100 µM with L1210 and 2.1 µM in the test on B16.

Regarding `CN1C/C(=C\c2cccc(Br)c2)C(=O)/C(=C/c2cccc(Br)c2)C1`, the values for the IC50 in the test on L1210 and with B16 were 5 µM and 2.1 µM, respectively.

Take `CN1C/C(=C\c2ccc(F)cc2)C(=O)/C(=C/c2ccc(F)cc2)C1`: the IC50 with L1210 amounted to 31 µM; with B16 it was 6.5 µM.

Take `O=C1/C(=C/c2cccc(O)c2)CNC/C1=C\c1cccc(O)c1`: the IC50 in the test with L1210 turned out to be 2.3 µM; in the test with B16, 0.7 µM.

In the case of `O=C1/C(=C/c2ccc(Cl)cc2)CNC/C1=C\c1ccc(Cl)cc1`, the IC50 in the test with L1210 came out at 7 µM; with B16, 4 µM.

For the compound `O=C1/C(=C/c2ccc(F)cc2)CNC/C1=C\c1ccc(F)cc1`, the IC50 amounted to 24.5 µM in the test with L1210 and 3.8 µM with B16.

Take `CN(C)c1ccc(/C=C2\CNC/C(=C\c3ccc(N(C)C)cc3)C2=O)cc1`: the IC50 with L1210 stood at 42.5 µM; with B16, 32.5 µM.

Turning to `CN1C/C(=C\c2ccc(Cl)cc2)C(=O)/C(=C/c2ccc(Cl)cc2)C1`, the IC50 amounted to 10 µM with L1210 and 3.8 µM in the test with B16.
